In this data set the test system is human PKK mRNA. In words: Antisense inhibition of human PKK mRNA in HepaRG cells, 1,000 nM, MOE/deoxy/cEt oligonucleotides (Example 3). The format is cell-based. Put shortly: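 HepaRG cells at 20,000 per well electroporated with 1,000 nM 16-mer MOE/cEt/deoxy gapmers (phosphorothioate, 5-methylcytosine). After about 24 h, PKK mRNA measured by qRT-PCR with primer probe set RTS3454, normalized to RIBOGREEN total RNA. Reported as percent inhibition versus untreated cells.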

[1] abbreviates: HepaRG cells, electroporation with 1,000 nM antisense oligonucleotide, approx. 24 hours, PKK mRNA by RT-PCR (RTS3454), relative to untreated control cells, Table 25 experiment.
Where [2] appears, read: PKK mRNA, HepaRG cells, 1,000 nM antisense oligonucleotide, Table 31.
Where [3] appears, read: Table 27, HepaRG cells, 1,000 nM antisense oligonucleotide, human PKK mRNA.
Setting [4] is: HepaRG cells, electroporation with 1,000 nM antisense oligonucleotide, approximately 24 hours, primer probe set RTS3454, relative to untreated control cells, experiment of Table 23.
Setting [5] is: HepaRG cells, electroporation with 1,000 nM antisense oligonucleotide, approximately 24 hours, primer probe set RTS3454, relative to untreated control cells, experiment of Table 24.

Strand notation (5' to 3'): a small letter for the sugar, then the base; units joined by * are phosphorothioate-linked, units joined directly phosphodiester-linked; [ ] holds rarer units or linkages, { } end groups; capitals alone tell only the bases. e = 2'-O-(2-methoxyethyl) (MOE); k = constrained ethyl (cEt); [5mC] = 5-methylcytosine; d = 2'-deoxy (DNA)

As to “548196 (e[5mC]*eA*kA*dT*dA*dT*dT*dG*dA*d[5mC]*dT*dT*dT*kG*kG*eG; antisense) [compound 548196]”, the “% inhibition” value under setting [1] amounted to 6%.
“548678 (antisense eG*eA*kG*dT*dT*dA*d[5mC]*d[5mC]*dT*dT*dA*d[5mC]*dA*kA*kG*e[5mC]) [compound 548678]”: the “% inhibition” value under setting [2] is given as 22%.
With “548377 (eG*eT*kG*dT*dG*d[5mC]*dT*dG*dA*dG*dG*dT*dT*kT*kG*e[5mC]; antisense) [compound 548377]”, under setting [3], the “% inhibition” value is listed as 80%.
Consider “547773 (antisense eT*e[5mC]*kT*dT*dG*dG*dA*dG*dG*dT*dG*dA*dG*kT*k[5mC]*eT) [compound 547773]”, for which the “% inhibition” value (Table 21 experiment, HepaRG cells, electroporation with 1,000 nM antisense oligonucleotide, approx. 24 hours, PKK mRNA by RT-PCR (RTS3454), relative to untreated control cells) is on record as 47%.
For the substance “548586 (eT*e[5mC]*k[5mC]*dA*dA*d[5mC]*dT*dA*d[5mC]*dA*dG*dG*dA*k[5mC]*kT*e[5mC]; antisense) [compound 548586]”, for the setting “HepaRG cells, 1,000 nM antisense oligonucleotide, Table 29”, the “% inhibition” value was 39%.
For “547972 (antisense eT*e[5mC]*kA*dA*d[5mC]*dT*d[5mC]*d[5mC]*d[5mC]*dG*dG*dG*dT*kA*kA*eA) [compound 547972]”, the “% inhibition” value under setting [4] turned out to be 49%.
The same measure, in the same setting: with “547992 (antisense e[5mC]*e[5mC]*kT*dT*dA*d[5mC]*dA*dG*dT*d[5mC]*dT*dT*d[5mC]*kT*kG*eG) [compound 547992]” the figure was 17%.
Consider “548648 (antisense e[5mC]*eA*kG*dT*dT*dG*dT*dA*dT*d[5mC]*d[5mC]*d[5mC]*dT*k[5mC]*k[5mC]*e[5mC]) [compound 548648]”, for which, under setting [2], the “% inhibition” value was 32%.
Turning to “548032 (eA*eG*kA*dT*dG*d[5mC]*dG*d[5mC]*d[5mC]*dA*dA*dA*d[5mC]*kA*kT*e[5mC]; antisense) [compound 548032]”, under setting [5], the “% inhibition” value was 51%.
For the substance “548271 (antisense eT*eT*k[5mC]*dA*d[5mC]*dT*dT*dA*d[5mC]*d[5mC]*dA*d[5mC]*dA*kG*kG*eA) [compound 548271]”, the “% inhibition” value (HepaRG cells, electroporation with 1,000 nM antisense oligonucleotide, approx. 24 hours, PKK mRNA by RT-PCR (RTS3454), relative to untreated control cells, Table 26 experiment) came to 56%.
“548022 (e[5mC]*e[5mC]*kA*d[5mC]*dT*d[5mC]*dT*d[5mC]*d[5mC]*d[5mC]*d[5mC]*dA*dA*kG*kA*eA; antisense) [compound 548022]”: the “% inhibition” value under setting [5] is 69%.
With “547988 (antisense eT*eG*kA*d[5mC]*dA*dG*d[5mC]*dG*dA*dA*dT*d[5mC]*dA*kT*k[5mC]*eT) [compound 547988]”, under setting [4], the “% inhibition” value came out at 56%.
As to “547850 (antisense eA*eA*kA*dT*dG*dT*d[5mC]*dT*d[5mC]*dG*dA*dT*dG*kG*k[5mC]*eA) [compound 547850]”, the “% inhibition” value by setting is: (Table 20, HepaRG cells, electroporation with 1,000 nM antisense oligonucleotide, approximately 24 hours, PKK mRNA by RT-PCR (RTS3454), relative to untreated control cells) 51%; (Table 22 experiment, HepaRG cells, electroporation with 1,000 nM antisense oligonucleotide, approx. 24 hours, PKK mRNA by RT-PCR (RTS3454), relative to untreated control cells) 80%.
On to “548361 (antisense e[5mC]*eT*kT*dA*dT*d[5mC]*dA*dG*dT*d[5mC]*d[5mC]*d[5mC]*dA*kG*kT*e[5mC]) [compound 548361]”, for which the “% inhibition” value under setting [3] came out at 52%.
For the substance “548037 (eA*eA*kT*dG*dT*d[5mC]*dT*dG*dA*d[5mC]*dA*dG*dA*kT*kT*eT; antisense) [compound 548037]”, the “% inhibition” value under setting [5] is on record as 70%.
Regarding “548674 (antisense eG*eA*kG*dA*dG*dA*d[5mC]*dG*dG*d[5mC]*dA*d[5mC]*d[5mC]*k[5mC]*kT*eG) [compound 548674]”, the “% inhibition” value under setting [2] stood at 4%.
Turning to “548080 (e[5mC]*e[5mC]*k[5mC]*dT*dT*d[5mC]*dT*dT*dT*dA*dT*dA*dG*k[5mC]*k[5mC]*eA; antisense) [compound 548080]”, the “% inhibition” value (Table 19, HepaRG cells, electroporation with 1,000 nM antisense oligonucleotide, approximately 24 hours, PKK mRNA by RT-PCR (RTS3454), relative to untreated control cells) was 0%.
On to “548448 (eT*e[5mC]*kA*d[5mC]*dT*dG*dT*d[5mC]*d[5mC]*dT*dA*dT*dG*kT*k[5mC]*eA; antisense) [compound 548448]”, for which the “% inhibition” value (Table 30, human PKK mRNA, HepaRG cells, 1,000 nM antisense oligonucleotide) was determined as 61%.
As for “548225 (eA*eG*kT*d[5mC]*dA*d[5mC]*d[5mC]*dA*dT*dA*dG*dA*d[5mC]*k[5mC]*k[5mC]*eA; antisense) [compound 548225]”, the “% inhibition” value under setting [1] came to 48%.
As for “548619 (antisense eG*eG*kT*dT*dG*dG*dT*dG*dG*d[5mC]*dG*dG*dG*kA*kT*e[5mC]) [compound 548619]”, under setting [2], the “% inhibition” value is reported as 19%.

One may read the % inhibition as the percentage by which the read-out fell short of the control. A high value points to a strong effect.

Source of the values: US11840686B2, “Modulation of prekallikrein (PKK) expression” (Ionis Pharmaceuticals, Inc., priority 2013, dated 2023).
